Reference: patent US5863776A, “Method of preparing apoenzyme” (Research Development Foundation, priority 1996, dated 1999)
Changes are numbered by the printed parent chain. Numbers in names are those of the source. Entries after “also recorded” stand apart in the source; their conditions may differ.

T1: MAO B (Homo sapiens, UniProt P27338)
T1 construct: expressed in transfected cells; host or cells: COS-7 (African green monkey), riboflavin-containing (Rib+) or riboflavin-depleted (Rib-), transient electroporation
T1 sequence (P27338 1-520): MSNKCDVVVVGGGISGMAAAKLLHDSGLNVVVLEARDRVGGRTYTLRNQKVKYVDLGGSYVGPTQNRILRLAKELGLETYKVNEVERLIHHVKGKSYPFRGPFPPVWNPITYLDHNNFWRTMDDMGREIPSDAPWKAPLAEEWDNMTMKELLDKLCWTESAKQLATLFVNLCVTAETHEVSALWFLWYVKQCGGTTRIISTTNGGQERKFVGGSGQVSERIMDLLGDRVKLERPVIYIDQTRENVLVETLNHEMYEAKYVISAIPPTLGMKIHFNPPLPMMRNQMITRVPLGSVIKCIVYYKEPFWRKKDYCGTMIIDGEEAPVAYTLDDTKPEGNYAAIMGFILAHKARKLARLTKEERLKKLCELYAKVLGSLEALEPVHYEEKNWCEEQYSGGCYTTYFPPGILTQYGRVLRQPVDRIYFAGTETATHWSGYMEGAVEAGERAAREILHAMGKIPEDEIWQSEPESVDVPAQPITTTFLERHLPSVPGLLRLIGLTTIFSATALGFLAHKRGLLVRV

B1: E34A: MAO B with Glu in position 34 replaced with Ala (protein, UniProt P27338 2-520, looked up, variant E34A)
Amine oxidase …: SNKCDVVVVGGGISGMAAAKLLHDSGLNVVVLAARDRVGGRTYTLRNQKVKYVDLGGSYVGPTQNRILRLAKELGLETYKVNEVERLIHHVKGKSYPFRGPFPPVWNPITYLDHNNFWRTMDDMGREIPSDAPWKAPLAEEWDNMTMKELLDKLCWTESAKQLATLFVNLCVTAETHEVSALWFLWYVKQCGGTTRIISTTNGGQERKFVGGSGQVSERIMDLLGDRVKLERPVIYIDQTRENVLVETLNHEMYEAKYVISAIPPTLGMKIHFNPPLPMMRNQMITRVPLGSVIKCIVYYKEPFWRKKDYCGTMIIDGEEAPVAYTLDDTKPEGNYAAIMGFILAHKARKLARLTKEERLKKLCELYAKVLGSLEALEPVHYEEKNWCEEQYSGGCYTTYFPPGILTQYGRVLRQPVDRIYFAGTETATHWSGYMEGAVEAGERAAREILHAMGKIPEDEIWQSEPESVDVPAQPITTTFLERHLPSVPGLLRLIGLTTIFSATALGFLAHKRGLLVRV
B2: E34Q: MAO B with Glu in position 34 replaced with Gln (protein, UniProt P27338 2-520, looked up, variant E34Q)
Amine oxidase …: B1 Amine oxidase … with A33Q

Key:
MAO B [1] = biological target: T1, MAO B; experiment: FAD coupling in intact cells: MAO B enzymatic activity after electroporation of MAO B cDNA with cofactor into Rib^- COS-7 cells ([^14 C] benzylamine substrate); type: cell-based; set-up: Percent of Holo-MAO B Activity: concentration or dose not given beside the values
Method: (§1) Wild-type or mutant MAO B cDNAs were transiently transfected into COS-7 cells by electroporation (23) as previously described (18). Briefly, Rib^+ - or Rib^- COS-7 cells were harvested during late log phase growth and resuspended to a concentration of 3.1×10^6 cells/ml in either riboflavin-containing or riboflavin-free medium, respectively. Wild-type or mutant MAO B cDNAs ([…]) were added to 0.8 ml of cell suspension. […] Electroporation was carried out in a Bio-Rad Gene Pulser with a setting of 250 V and 500 μF. Cells were resuspended in 15 ml of riboflavin-containing or riboflavin-free medium and incubated at 37° C. with 5% CO2. Transfected COS-7 cells were harvested at 48 hours and homogenized in a lysis solution containing 20 mM Tris-HCl, 1 mM EDTA, 0.5 mM PMSF, pH 8.0. The homogenate was diluted with an equal volume of the same buffer supplemented with 300 mM NaCl to obtain a 150 mM final NaCl concentration. Triton X-100 (Pierce) was added to the lysate to give a final concentration of 0.25%, and the samples were allowed to stir for 50 min. at 4° C. to extract MAO B from the outer mitochondrial membrane. After Triton extraction, the lysate was centrifuged at 1300×g for 5 min. at 4° C. to remove insoluble cell debris.
(§2) MAO B activity was assayed radiometrically by a modification of the method of Wurtman and Axelrod (26) as described previously (18). Briefly, the reaction mixture contained 200 μl of 50 mM sodium phosphate buffer (pH 7.4), 3.6 nmole of 55 mCi/mmol [^14 C] benzylamine hydrochloride (Amersham), 10 nmoles of unlabeled benzylamine and 10 μl of cell lysate. Samples were run in triplicate, and one out of each set was denatured with […] of 6N HCl prior to the addition of substrate to serve as an internal control. All reactions were incubated for 9 minutes at 37° C., and terminated by the addition of 25 μl of 6N HCl. The reaction product was extracted with 500 μl of toluene, and an aliquot (200 μl) of the organic phase from each sample was counted in liquid scintillation fluid (Bio-Safe) in a Beckman LB 3801 scintillation counter.
FMN or riboflavin were also capable of restoring approximately 75% of MAO B holoenzyme activity. However, only 40% of MAO B holoenzyme activity was obtained by the addition of 8α-hydroxyriboflavin.
Various cofactors were added with MAO B cDNA into Rib^- COS7 cells

MAO B [2] = biological target: T1, MAO B; experiment: Quantitation of expressed MAO B protein by ELISA in transfected COS-7 cells; type: cell-based; set-up: MAO B Expressed: unit not given here; conditions: cofactor added with MAO B cDNA into Rib^- COS-7 cells; 48 hours; mean ± SE, three experiments
Method: Total protein concentrations of samples containing MAO B holoenzyme, apoenzyme, or variant MAO Bs were determined by a MicroBCA kit (Pierce). All samples were then adjusted to equal protein concentrations and assayed for MAO B protein by ELISA using a modification of the method of Yeomanson and Billett (25) as described previously (18).
MAO B cDNA was expressed sequentially at different time intervals in these cells during this riboflavin depletion process (FIG. 2). Each data point in FIG. 2 represents an individual expression assay. For each assay, a sample of COS-7 cells grown in riboflavin-free medium were transfected with MAO B cDNA via electroporation. Concurrently, Rib^+ COS-7 cells were transfected with MAO B cDNA to serve as a control. Following incubation for 48 hours, the cells were homogenized and assays were performed to determine protein concentration, MAO B concentration by ELISA using polyclonal antibodies, and MAO B activity using [^14 C] benzylamine.
An equal amount of MAO B cDNA (15 μg) was expressed in both types of […]

MAO B [3] = biological target: T1, MAO B; experiment: FAD coupling in vitro (flavinylation assay in cell lysate, 30° C.); type: biochemical; conditions: 30° C.
Method: (- - - x - - - ). […] The enzymatic activity of each sample was determined at 1 hour time intervals using [^14 C] benzylamine as substrate.
Apo-MAO B was obtained by expressing MAO B cDNA in Rib^- COS-7 cells. The cells were then harvested and homogenized as described above. One half of the lysate was stirred in the presence of 0.25% Triton X-100 at 4° C. for 50 min. to extract apo-MAO B from the outer mitochondrial membrane. The second half of the lysate was not extracted with Triton X-100 to permit MAO B to remain in the membrane. […] Assays were also carried out in the presence of an energy mixture (10 mM ATP, 32 mM PEP and 2.4 μg pyruvate kinase) and 25% glycerol in the reaction vials. Each sample was run in triplicate. After 1, 2 or 3 hours incubation at 30° C., each sample was assayed for MAO B activity as described below.
as §2

[4] = tested on: L-gulono-g-lactone oxidase; conditions: cited from earlier work
MAO B [5] = experiment: [^14 C] FAD incorporation into wild-type or mutant MAO B in Rib^- COS-7 cells (immunoprecipitation, fluorography); type: binding, human; conditions: about 59 kDa; equal MAO B concentrations
Method: Mutagenesis was carried out by the method of Deng and Nickoloff (22) using a Transformer Site-directed Mutagenesis kit (Clontech). Glu in position 34 was replaced with Asp (E34D), Gln (E34Q), or Ala (E34A), and Val in position 10 was replaced with Ile (V10I) as described by Kwan et al. (18).
as §1
Transfected Rib^+ - or Rib^- COS-7 cells were homogenized, and extracted with 0.25% Triton X-100 for 50 minutes at 4° C. The cell lysates were centrifuged at 1300×g for 5 minutes, and an aliqout of each supernatant was analyzed for MAO B concentration by ELISA. All supernatants were then adjusted to equal MAO B concentration and incubated with polyclonal goat anti-MAO B antibody (10 μg) overnight at 4° C. Protein-G Sepharose beads (Pierce) were added (50 μl) and incubation was continued for 3 hours. The protein-G Sepharose/goat antibody/MAO B immmunocomplex was collected by centrifugation at 10,000×g for 20 seconds and washed 6 times with 150 μl of 20 mM Tris buffer, pH 8.0. The immunocomplex was then dissolved in SDS-PAGE sample buffer and analyzed by Western blot or fluorography.
The immunoprecipitated proteins (obtained as described above) were subjected to electrophoresis in a 10% SDS-polyacrylamide gel and examined by Western blotting as previously described (18). The immunoprecipitated proteins (obtained as described above) were subjected to electrophoresis in a 10% SDS-polyacrylamide gel. The SDS-PAGE gel was fixed by soaking in 7% acetic acid, 10% methanol, 83% H2 O for 1 hour, and then processed for fluorography as described by Bonner and Laskey (27). The dried gel was exposed to Kodak X-OMAT AR film at -80° C. for 2 weeks.
The expressed wild-type and variant MAO Bs were adjusted to equal concentrations using ELISA before immunoprecipitation, and then analyzed by fluorography. The amount of incorporation of [^14 C] […] FAD was incorporated into the enzyme.

MAO B [6] = conditions: mutation at Glu^34; cited from earlier work

Molecule	restoration of active MAO B (in words) (MAO B [1]; cofactor added with MAO B cDNA during electroporation)	Enzymatic Activity (MAO B [1]; cofactor added with MAO B cDNA into Rib^- COS-7 cells, 48 hours, mean ± SE, three experiments)	Percent of Holo-MAO B Activity (MAO B [1]; relative to holo-MAO B expressed in Rib^+ COS-7 cells, 2880 min)	MAO B Expressed (MAO B [2])	MAO B catalytic activity after adding exogenous FAD to apo-MAO B (MAO B [3]; Triton extracted or non-extracted lysate)	MAO B activity after adding exogenous FAD to apo-MAO B (MAO B [3]; with energy mixture and glycerol)	covalently bound FAD [4]	enzymatic activity upon addition of FAD [4]	[^14 C] FAD incorporation (band on fluorogram) (MAO B [5])	loss of activity (in words) (MAO B [6])
Cc1cc2nc3c(=O)[nH]c(=O)nc-3n(C[C@H](O)[C@H](O)[C@H](O)COP(=O)(O)OP(=O)(O)OC[C@H]3O[C@@H](n4cnc5c(N)ncnc54)[C@H](O)[C@@H]3O)c2cc1C [FAD]	equal levels of MAO B activity; also recorded: active MAO B (containing FAD) was obtained	0.85 ± 0.01 μmol benzylamine/minute/mg MAO	~75%	0.86 ± 0.03	no MAO B catalytic activity was observed; also recorded: MAO B activity could not be regenerated	no MAO B activity was obtained; also recorded: unsuccessful	no covalently bound FAD could be obtained	Enzymatic activity was observed	–	–
B1	–	–	–	–	–	–	–	–	did not exhibit bands	complete loss of activity; also recorded: devoid of enzymatic activity
B2	–	–	–	–	–	–	–	–	did not exhibit bands	complete loss of activity; also recorded: devoid of enzymatic activity
